Earlier results in US8653094B2, “Solid forms of (S)-ethyl 2-amino-3-(4-(2-amino-6-((R)-1-(4-chloro-2-(3-methyl-1H-pyrazol-1-yl)phenyl)-2,2,2-trifluoroethoxy)-pyrimidin-4-yl)phenyl)propanoate and methods of their use” (Lexicon Pharmaceuticals, Inc., priority 2007, dated 2014).

What was measured:
[1] = test system: peripheral serotonin levels; conditions: when administered to animals; see U.S. patent application No. 60/874,596
tryptophan hydroxylase = conditions: statement in words; see U.S. patent application No. 60/874,596

For `CCOC(=O)[C@@H](N)Cc1ccc(-c2cc(O[C@H](c3ccc(Cl)cc3-n3ccc(C)n3)C(F)(F)F)nc(N)n2)cc1` [(S)-ethyl 2-amino-3-(4-(2-amino-6-((R)-1-(4-chloro-2-(3-methyl-1H-pyrazol-1-yl)phenyl)-2,2,2-trifluoroethoxy)pyrimidin-4-yl)phenyl)propanoate], the “effect on peripheral serotonin levels” value [1] is given as “decreases peripheral serotonin levels” and the tryptophan hydroxylase inhibition (tryptophan hydroxylase) is given as “inhibitor of tryptophan hydroxylase”.
